pIC50: −log10 of the molar value. Calls of active or inactive are those of the source. The rule behind the calls is not given here.
Legend:
MDA-MB-231 [1] = assay: Antiproliferative activity against human MDA-MB-231 cells assessed as inhibition of cell growth incubated for 48 hrs in absence of beta-glucuronidase by MTT assay; type: functional, cell-based; details: MDA-MB-231, 48 h
[2] = Chemical stability of compound at pH 7.4 in bovine serum at 1 mg incubated for 48 hrs by HPLC analysis; type: ADME, cell-free; details: cattle, pH 7.4, 48 h
HeLa [3] = assay: Antiproliferative activity against human HeLa cells assessed as inhibition of cell growth incubated for 48 hrs in presence of beta-glucuronidase by MTT assay; type: functional, cell-based
[4] = Metabolic stability in rat liver microsomes assessed as intrinsic clearance in microsomes at 10 mM measured up to 60 mins in presence of NADPH by LC-MS/MS analysis; type: ADME, Microsome; details: read-out: CLH
MDA-MB-231 [5] = assay: Antiproliferative activity against human MDA-MB-231 cells assessed as inhibition of cell growth incubated for 48 hrs in presence of beta-glucuronidase by MTT assay; type: functional, cell-based; details: MDA-MB-231, 48 h
[6] = Chemical stability of compound at pH 7.4 in PBS buffer at 1 mg incubated for 48 hrs by HPLC analysis; type: physicochemical; details: pH 7.4, 48 h
SK-OV-3 [7] = assay: Antiproliferative activity against human SK-OV-3 cells assessed as inhibition of cell growth incubated for 48 hrs in absence of beta-glucuronidase by MTT assay; type: functional, cell-based; details: SK-OV-3, 48 h
[8] = Metabolic stability in rat liver microsomes assessed as parent compound remaining at 10 mM measured up to 60 mins in presence of NADPH by LC-MS/MS analysis; type: ADME, Microsome; details: read-out: Stability
HeLa [9] = assay: Antiproliferative activity against human HeLa cells assessed as inhibition of cell growth incubated for 48 hrs in absence of beta-glucuronidase by MTT assay; type: functional, cell-based
[10] = Stability of compound in phosphate buffer at pH 7.4 assessed as Escherichia coli beta-glucuronidase mediated compound cleavage at 1.2 mg measured after 10 mins by HPLC analysis; type: ADME; details: pH 7.4, 10 min
[11] = Metabolic stability in rat liver microsomes assessed as intrinsic clearance in liver at 10 mM measured up to 60 mins in presence of NADPH by LC-MS/MS analysis; type: ADME, Microsome; details: read-out: CLH
MCF7 [12] = assay: Antiproliferative activity against human MCF7 cells assessed as inhibition of cell growth incubated for 48 hrs in presence of beta-glucuronidase by MTT assay; type: functional, cell-based; details: MCF7, 48 h
[13] = Aqueous solubility of compound in PBS at pH 7.4 at 1 mg incubated for 10 mins by HPLC analysis; type: physicochemical
MCF7 [14] = assay: Antiproliferative activity against human MCF7 cells assessed as inhibition of cell growth incubated for 48 hrs in absence of beta-glucuronidase by MTT assay; type: functional, cell-based; details: MCF7, 48 h
[15] = Metabolic stability in rat liver microsomes assessed as half life at 10 mM measured up to 60 mins in presence of NADPH by LC-MS/MS analysis; type: ADME, Microsome
SK-OV-3 [16] = assay: Antiproliferative activity against human SK-OV-3 cells assessed as inhibition of cell growth incubated for 48 hrs in presence of beta-glucuronidase by MTT assay; type: functional, cell-based; details: SK-OV-3, 48 h
[17] = Stability of compound in phosphate buffer at pH 7.4 assessed as Escherichia coli beta-glucuronidase mediated compound cleavage at 1.2 mg measured after 2 hrs by HPLC analysis; type: ADME; details: pH 7.4, 2 h
MCF7 [18] = assay: Antiproliferative activity against human MCF7 cells assessed as inhibition of cell growth incubated for 48 hrs by MTT assay; type: functional, cell-based; details: MCF7, 48 h
HeLa [19] = assay: Antiproliferative activity against human HeLa cells assessed as inhibition of cell growth incubated for 48 hrs by MTT assay; type: functional, cell-based
SK-OV-3 [20] = assay: cells; details: Homo sapiens, SK-OV-3, 48 h
Description: Antiproliferative activity against human SK-OV-3 cells assessed as inhibition of cell growth incubated for 48 hrs by MTT assay

MDA-MB-231 [21] = assay: Antiproliferative activity against human MDA-MB-231 cells assessed as inhibition of cell growth incubated for 48 hrs by MTT assay; type: functional, cell-based; details: MDA-MB-231, 48 h
[22] = Acute toxicity in BALB/c mouse assessed as animal survival at 50 mg/kg, iv administered as single dose measured after 14 days; type: organism-based; details: in vivo, time 14 day
[23] = Toxicity in nude mouse assessed as effect on monocytes level at 3.75 mg/kg, iv administered qd for 3 days (reference value: 37.10 %); type: organism-based; details: in vivo, 72 h, time 3 day
[24] = Toxicity in nude mouse assessed as animal death at 5 mg/kg, iv administered 3 consecutive dosages; type: organism-based; details: in vivo
[25] = Toxicity in nude mouse assessed as effect on total bilirubin level in serum at 3.75 mg/kg, iv administered qd for 3 days (reference value: 3.3 micromol/L); type: organism-based; details: in vivo, 72 h, time 3 day
[26] = Acute toxicity in BALB/c mouse assessed as animal survival at 25 mg/kg, iv administered as single dose measured after 14 days; type: organism-based; details: in vivo, time 14 day
[27] = Acute toxicity in BALB/c mouse assessed as animal survival at 100 mg/kg, iv administered as single dose measured after 14 days; type: organism-based; details: in vivo, time 14 day
[28] = Acute toxicity in BALB/c mouse assessed as animal survival at 70 mg/kg, iv administered as single dose measured after 14 days; type: organism-based; details: in vivo, time 14 day
[29] = Toxicity in nude mouse assessed as effect on total protein level in serum at 3.75 mg/kg, iv administered qd for 3 days (reference value: 47.3 g/L); type: organism-based; details: in vivo, 72 h, time 3 day
[30] = Cardiotoxicity in nude mouse assessed as prolonged QT intervals at 5 mg/kg, iv administered once daily for 3 days by ECG analysis; type: toxicity, organism-based; details: in vivo, 72 h, time 3 day
[31] = Acute toxicity in BALB/c mouse assessed as lethal dose administered intravenously as single dose and measured after 14 days; details: in vivo, route iv, time 14 day
[32] = Toxicity in nude mouse assessed as effect on platelet distribution width at 3.75 mg/kg, iv administered qd for 3 days (reference value: 20.2); type: organism-based; details: in vivo, 72 h, time 3 day
[33] = Toxicity in nude mouse assessed as effect on mean corpuscular hemoglobin concentration at 3.75 mg/kg, iv administered qd for 3 days (reference value: 473 g/L); type: organism-based; details: in vivo, 72 h, time 3 day
[34] = Toxicity in nude mouse assessed as effect on lymphocyte level at 3.75 mg/kg, iv administered qd for 3 days (reference value: 60.90 %); type: organism-based; details: in vivo, 72 h, time 3 day
[35] = Toxicity in nude mouse assessed as effect on neutrophil level at 3.75 mg/kg, iv administered qd for 3 days (reference value: 7.40 %); type: organism-based; details: in vivo, 72 h, time 3 day
[36] = Toxicity in nude mouse assessed as effect on aspartate aminotransferase level in serum at 3.75 mg/kg, iv administered qd for 3 days (reference value: 424 U/L); type: organism-based; details: in vivo, 72 h, time 3 day
[37] = Toxicity in nude mouse assessed as effect on mean corpuscular hemoglobin level at 3.75 mg/kg, iv administered qd for 3 days (reference value: 22.3 pg); type: organism-based; details: in vivo, 72 h, time 3 day
[38] = Toxicity in nude mouse assessed as effect on white blood cell count at 3.75 mg/kg, iv administered qd for 3 days (reference value: 0.02 10^9/L); type: organism-based; details: in vivo, 72 h, time 3 day
[39] = Toxicity in nude mouse assessed as effect on albumin level in serum at 3.75 mg/kg, iv administered qd for 3 days (reference value: 31.2 g/L); type: organism-based; details: in vivo, 72 h, time 3 day
[40] = Toxicity in nude mouse xenografted with human MDA-MB-231 cells assessed as pathological changes in spleen at 3.75 mg/kg, iv administered every 2 days for 14 days by H and E staining based assay; type: organism-based; details: in vivo, 336 h, time 14 day
MDA-MB-231 [41] = assay: Antitumor activity against mouse xenografted with human MDA-MB-231 cells assessed as increase in tumor necrosis area at 3.75 mg/kg, iv administered every 2 days for 14 days by H and E staining based assay; type: functional, organism-based; details: time 14.0 day
[42] = Acute toxicity in BALB/c mouse assessed as animal survival at 12.5 mg/kg, iv administered as single dose measured after 14 days; type: organism-based; details: in vivo, time 14 day
[43] = Toxicity in nude mouse assessed as effect on gamma-glutamyl transpeptidase level in serum at 3.75 mg/kg, iv administered qd for 3 days (Rvb < 2 U/L); type: organism-based; details: in vivo, 72 h, time 3 day
[44] = Toxicity in nude mouse xenografted with human MDA-MB-231 cells assessed as pathological changes in liver at 3.75 mg/kg, iv administered every 2 days for 14 days by H and E staining based assay; type: organism-based; details: in vivo, 336 h, time 14 day
[45] = Toxicity in nude mouse xenografted with human MDA-MB-231 cells assessed as pathological changes in kidney at 3.75 mg/kg, iv administered every 2 days for 14 days by H and E staining based assay; type: organism-based; details: in vivo, 336 h, time 14 day
[46] = Toxicity in nude mouse assessed as effect on platelet count at 3.75 mg/kg, iv administered qd for 3 days (reference value: 21 10^9/L); type: organism-based; details: in vivo, 72 h, time 3 day
[47] = Toxicity in nude mouse assessed as effect on alkaline phosphatase level in serum at 3.75 mg/kg, iv administered qd for 3 days (reference value: 66 U/L); type: organism-based; details: in vivo, 72 h, time 3 day
[48] = Toxicity in nude mouse assessed as effect on globulin level in serum at 3.75 mg/kg, iv administered qd for 3 days (reference value: 16.1 g/L); type: organism-based; details: in vivo, 72 h, time 3 day
[49] = Cardiotoxicity in nude mouse assessed as abnormal spikes at 5 mg/kg, iv administered once daily for 3 days by ECG analysis; type: toxicity, organism-based; details: in vivo, 72 h, time 3 day
[50] = Toxicity in nude mouse assessed as effect on eosinophil level at 3.75 mg/kg, iv administered qd for 3 days (reference value: 6 %); type: organism-based; details: in vivo, 72 h, time 3 day
[51] = Toxicity in nude mouse assessed as effect on alanine aminotransferase level in serum at 3.75 mg/kg, iv administered qd for 3 days (reference value: 308 U/L); type: organism-based; details: in vivo, 72 h, time 3 day
[52] = Toxicity in nude mouse assessed as effect on basophil level at 3.75 mg/kg, iv administered qd for 3 days (reference value: 11.70 %); type: organism-based; details: in vivo, 72 h, time 3 day

SMILES: COc1ccc([C@H]2[C@H](CF)C(=O)N2c2cc(OC)c(OC)c(OC)c2)cc1OCc1ccc(O[C@@H]2O[C@H](C(=O)O)[C@@H](O)[C@H](O)[C@H]2O)cc1
- pIC50 (MDA-MB-231 [1]): < 4.30
- Stability [2]: Stable
- pIC50 (HeLa [3]): 7.84
- microsomal CLint [4]: < 9.6 µL/min/mg
- pIC50 (MDA-MB-231 [5]): 8.46
- Stability [6]: Stable
- pIC50 (SK-OV-3 [7]): < 4.30
- remaining at 1 h [8]: 84.6%
- pIC50 (HeLa [9]): < 4.30
- Stability [10]: Unstable
- CLint scaled [11]: < 38 mL/min/kg
- pIC50 (MCF7 [12]): 7.81
- solubility at 10 min [13]: > 40 mg/mL
- pIC50 (MCF7 [14]): < 4.30
- half-life [15]: > 2.42 h
- pIC50 (SK-OV-3 [16]): 7.65

SMILES: COc1cc(C(=O)c2c(N)oc3c(OCc4ccc(O[C@@H]5O[C@H](C(=O)O)[C@@H](O)[C@H](O)[C@H]5O)cc4)c(OC)ccc23)cc(OC)c1OC
- Stability [2]: Stable
- Stability [6]: Stable
- Stability [17]: Unstable

SMILES: COc1ccc([C@H]2[C@H](CF)C(=O)N2c2cc(OC)c(OC)c(OC)c2)cc1O
- pIC50 (MCF7 [18]): 7.90
- pIC50 (HeLa [19]): 8.17
- pIC50 (SK-OV-3 [20]): 8.42
- pIC50 (MDA-MB-231 [21]): 8.96

SMILES: COc1ccc([C@H]2[C@H](CO)C(=O)N2c2cc(OC)c(OC)c(OC)c2)cc1OCc1ccc(O[C@@H]2O[C@H](C(=O)O)[C@@H](O)[C@H](O)[C@H]2O)c([N+](=O)[O-])c1
- Stability [2]: Stable
- Stability [6]: Stable
- Stability [17]: Unstable

SMILES: COc1ccc([C@H]2[C@H](CO)C(=O)N2c2cc(OC)c(OC)c(OC)c2)cc1O (racemic)
- survival at 336 h [22]: 87.5%
- Activity [23]: 7.7%
- Activity [24]: Toxic
- Activity [25]: 6.3 µmol/L
- survival at 336 h [26]: 100%
- survival at 336 h [27]: 0%
- survival at 336 h [28]: 37.5%
- Activity [29]: 48.8 g/L
- Activity [30]: Toxic
- pIC50 (MCF7 [18]): 7.83
- LD50 at 336 h [31]: 65 mg/kg
- Activity [32]: 18.5
- Activity [33]: 488 g/L
- pIC50 (HeLa [19]): 8.23
- Activity [34]: 66.7%
- Activity [35]: 7.4%
- Activity [36]: 503 U/L
- Activity [37]: 23.5 pg
- pIC50 (MDA-MB-231 [21]): 7.92
- Activity [38]: 0.05 10^9/L
- Activity [39]: 33.1 g/L
- Activity [40]: Non-Toxic
- Activity (MDA-MB-231 [41]): Active
- survival at 336 h [42]: 100%
- Activity [43]: < 2 U/L
- Activity [44]: Non-Toxic
- Activity [45]: Non-Toxic
- Activity [46]: 99 10^9/L
- Activity [47]: 142 U/L
- Activity [48]: 15.7 g/L
- Activity [49]: Toxic
- Activity [50]: 18.2%
- Activity [51]: 196 U/L
- Activity [52]: 4.7%
